pIC50: −log10 of the molar value.
tested on: fulvestrant-resistant MCF7:5C-FR cells; assay: Fulvestrant-resistant breast cancer cell viability (cell proliferation) assay; format: cell-based; conditions: 120 h, growth inhibition in fulvestrant-resistant MCF-7:CFR cells, 120 hrs
Summary of the method: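 Cells were treated the day after seeding with compounds at 3 nM to 10 uM for 120 h, with 0.1% DMSO vehicle and 1 uM JQ1 as positive control. Hoechst 33342-stained (5 μg/ml, 90 min, 37 C) nuclei were imaged and counted, and cell numbers normalized to vehicle.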

SMILES | pIC50
CCS(=O)(=O)Nc1cc(-c2cn(CCCl)c3c(O)nccc23)cc2c1ccn2Cc1ccc(F)cc1F [Compound 85, N-(6-(1-(2-chloroethyl)-7-hydroxy-1H-pyrrolo[2,3-c]pyridin-3-yl)-1-(2,4-difluorobenzyl)-1H-indol-4-yl)ethanesulfonamide] | > 6.00
CCS(=O)(=O)Nc1cc(-c2cn(CCCl)c3c(O)nccc23)cc2c1ccn2Cc1ccc(C#N)cc1 [Compound 86, N-(6-(1-(2-chloroethyl)-7-hydroxy-1H-pyrrolo[2,3-c]pyridin-3-yl)-1-(4-cyanobenzyl)-1H-indol-4-yl)ethanesulfonamide] | > 6.00
CCS(=O)(=O)Nc1cc(-c2cn(CCCl)c3c(O)nccc23)cc2c1ccn2Cc1ccc(Cl)c(Cl)c1 [Compound 87, N-(6-(1-(2-chloroethyl)-7-hydroxy-1H-pyrrolo[2,3-c]pyridin-3-yl)-1-(3,4-dichlorobenzyl)-1H-indol-4-yl)ethanesulfonamide] | > 6.00
C=CC(=O)Cn1cc(-c2cc(NS(C)(=O)=O)c3ccn(Cc4ccc(F)cc4)c3c2)c2ccnc(O)c21 [Compound 88, N-(1-(4-fluorobenzyl)-6-(7-hydroxy-1-(2-oxobut-3-en-1-yl)-1H-pyrrolo[2,3-c]pyridin-3-yl)-1H-indol-4-yl)methanesulfonamide] | > 6.00
CS(=O)(=O)Nc1cc(-c2cn(CC3CO3)c3c(O)nccc23)cc2c1ccn2Cc1ccc(F)cc1 (stereo not drawn) [Compound 89, N-(1-(4-fluorobenzyl)-6-(7-hydroxy-1-(oxiran-2-ylmethyl)-1H-pyrrolo[2,3-c]pyridin-3-yl)-1H-indol-4-yl)methanesulfonamide] | > 6.00
CS(=O)(=O)Nc1cc(-c2cn(CC(=O)CCl)c3c(O)nccc23)cc2c1ccn2Cc1ccc(F)cc1 [Compound 90, N-(6-(1-(3-chloro-2-oxopropyl)-7-hydroxy-1H-pyrrolo[2,3-c]pyridin-3-yl)-1-(4-fluorobenzyl)-1H-indol-4-yl)methanesulfonamide] | > 6.00
CCS(=O)(=O)Nc1cc(-c2cn(C)c3c(O)nccc23)cc2c1ccn2[C@H](c1ccccc1)C1CCOCC1 [Compound 91, (S)-N-(6-(7-hydroxy-1-methyl-1H-pyrrolo[2,3-c]pyridin-3-yl)-1-(phenyl(tetrahydro-2H-pyran-4-yl)methyl)-1H-indol-4-yl)ethanesulfonamide] | > 6.00
CCS(=O)(=O)Nc1cc(-c2cn(C)c3c(O)nccc23)cc2c1ccn2[C@@H](c1ccccc1)C1CCOCC1 [Compound 92, (R)-N-(6-(7-hydroxy-1-methyl-1H-pyrrolo[2,3-c]pyridin-3-yl)-1-(phenyl(tetrahydro-2H-pyran-4-yl)methyl)-1H-indol-4-yl)ethanesulfonamide] | > 6.00
CCS(=O)(=O)Nc1cc(-c2cn(CCCl)c3c(O)nccc23)cc2c1ccn2Cc1ccccc1 [Compound 95, N-(1-benzyl-6-(1-(2-chloroethyl)-7-hydroxy-1H-pyrrolo[2,3-c]pyridin-3-yl)-1H-indol-4-yl)ethanesulfonamide] | < 7.00
C=CC(=O)Cn1cc(-c2cc(NS(C)(=O)=O)c3ccn(Cc4ccccc4)c3c2)c2ccnc(O)c21 [Compound 97, N-(1-benzyl-6-(7-hydroxy-1-(2-oxobut-3-en-1-yl)-1H-pyrrolo[2,3-c]pyridin-3-yl)-1H-indol-4-yl)methanesulfonamide] | < 7.00
CS(=O)(=O)Nc1cc(-c2cn(CC3CO3)c3c(O)nccc23)cc2c1ccn2Cc1ccccc1 (stereo not drawn) [Compound 98, N-(1-benzyl-6-(7-hydroxy-1-(oxiran-2-ylmethyl)-1H-pyrrolo[2,3-c]pyridin-3-yl)-1H-indol-4-yl)methanesulfonamide] | > 6.00

Now from value to compound:

pIC50 | SMILES
> 6.00 | CS(=O)(=O)Nc1cc(-c2cn(CC(=O)CCl)c3c(O)nccc23)cc2c1ccn2Cc1ccccc1 [Compound 99, N-(1-benzyl-6-(1-(3-chloro-2-oxopropyl)-7-hydroxy-1H-pyrrolo[2,3-c]pyridin-3-yl)-1H-indol-4-yl)methanesulfonamide]
> 6.00 | Cn1cc(-c2cc(NS(C)(=O)=O)c3ccn(Cc4cccc(F)c4)c3c2)c2cc[nH]c(=O)c21 [Compound 100, N-(1-(3-fluorobenzyl)-6-(1-methyl-7-oxo-6,7-dihydro-1H-pyrrolo[2,3-c]pyridin-3-yl)-1H-indol-4-yl)methanesulfonamide]
> 6.00 | Cc1cc(F)cc(C)c1Cn1ccc2c(NS(C)(=O)=O)cc(-c3cn(C)c4c(=O)[nH]ccc34)cc21 [Compound 101, N-(1-(4-fluoro-2,6-dimethylbenzyl)-6-(1-methyl-7-oxo-6,7-dihydro-1H-pyrrolo[2,3-c]pyridin-3-yl)-1H-indol-4-yl)methanesulfonamide]
> 6.00 | CCS(=O)(=O)Nc1cc(-c2cn(C)c3c(=O)[nH]ccc23)cc2c1ccn2C(C)(c1nccs1)c1nccs1 [Compound 102, N-(1-(1,1-di(thiazol-2-yl)ethyl)-6-(1-methyl-7-oxo-6,7-dihydro-1H-pyrrolo[2,3-c]pyridin-3-yl)-1H-indol-4-yl)ethanesulfonamide]
> 6.00 | CC(=O)Nc1cc(-c2cn(C)c3c(=O)[nH]ccc23)cc2c1ccn2Cc1cccc(F)c1 [Compound 103, N-(1-(3-fluorobenzyl)-6-(1-methyl-7-oxo-6,7-dihydro-1H-pyrrolo[2,3-c]pyridin-3-yl)-1H-indol-4-yl)acetamide]
> 6.00 | CCC(=O)Nc1cc(-c2cn(C)c3c(=O)[nH]ccc23)cc2c1ccn2C(C)(c1cnccn1)c1cnccn1 [Compound 104, N-(1-(1,1-di(pyrazin-2-yl)ethyl)-6-(1-methyl-7-oxo-6,7-dihydro-1H-pyrrolo[2,3-c]pyridin-3-yl)-1H-indol-4-yl)propionamide]
> 6.00 | Cn1cc(-c2cc(C(C)(C)O)c3ccn(CC4(C)COC4)c3c2)c2cc[nH]c(=O)c21 [Compound 105, 3-(4-(2-hydroxypropan-2-yl)-1-((3-methyloxetan-3-yl)methyl)-1H-indol-6-yl)-1-methyl-1,6-dihydro-7H-pyrrolo[2,3-c]pyridin-7-one]
> 6.00 | Cn1cc(-c2cc(C(C)(C)O)c3ccn(CC4CC(F)(F)C4)c3c2)c2cc[nH]c(=O)c21 [Compound 106, 3-(1-((3,3-difluorocyclobutyl)methyl)-4-(2-hydroxypropan-2-yl)-1H-indol-6-yl)-1-methyl-1,6-dihydro-7H-pyrrolo[2,3-c]pyridin-7-one]
> 6.00 | Cn1cc(-c2cc(C(C)(C)O)c3ccn(Cc4cccc(F)c4)c3c2)c2cc[nH]c(=O)c21 [Compound 107, 3-(1-(3-fluorobenzyl)-4-(2-hydroxypropan-2-yl)-1H-indol-6-yl)-1-methyl-1,6-dihydro-7H-pyrrolo[2,3-c]pyridin-7-one]
> 6.00 | Cc1cc(F)cc(C)c1Cn1ccc2c(C(C)(C)O)cc(-c3cn(C)c4c(=O)[nH]ccc34)cc21 [Compound 108, 3-(1-(4-fluoro-2,6-dimethylbenzyl)-4-(2-hydroxypropan-2-yl)-1H-indol-6-yl)-1-methyl-1,6-dihydro-7H-pyrrolo[2,3-c]pyridin-7-one]
> 6.00 | Cn1cc(-c2cc(C(C)(C)O)c3ccn(C(C)(c4cnccn4)c4cnccn4)c3c2)c2cc[nH]c(=O)c21 [Compound 109, 3-(1-(1,1-di(pyrazin-2-yl)ethyl)-4-(2-hydroxypropan-2-yl)-1H-indol-6-yl)-1-methyl-1,6-dihydro-7H-pyrrolo[2,3-c]pyridin-7-one]
> 6.00 | Cn1ccnc1C(C)(c1nccn1C)n1ccc2c(C(C)(C)O)cc(-c3cn(C)c4c(=O)[nH]ccc34)cc21 [Compound 110, 3-(1-(1,1-bis(1-methyl-1H-imidazol-2-yl)ethyl)-4-(2-hydroxypropan-2-yl)-1H-indol-6-yl)-1-methyl-1,6-dihydro-7H-pyrrolo[2,3-c]pyridin-7-one]
> 6.00 | Cn1cc(-c2cc(C(C)(C)O)c3ccn(C(C)(c4nccs4)c4nccs4)c3c2)c2cc[nH]c(=O)c21 [Compound 111, 3-(1-(1,1-di(thiazol-2-yl)ethyl)-4-(2-hydroxypropan-2-yl)-1H-indol-6-yl)-1-methyl-1,6-dihydro-7H-pyrrolo[2,3-c]pyridin-7-one]
> 6.00 | Cc1cccc(C)c1Cn1ccc2c(C(C)(C)O)cc(-c3cn(C)c4c(=O)[nH]ccc34)cc21 [Compound 113, 3-(1-(2,6-dimethylbenzyl)-4-(2-hydroxypropan-2-yl)-1H-indol-6-yl)-1-methyl-1,6-dihydro-7H-pyrrolo[2,3-c]pyridin-7-one]
> 6.00 | Cc1cccc(Cl)c1Cn1ccc2c(C(C)(C)O)cc(-c3cn(C)c4c(=O)[nH]ccc34)cc21 [Compound 114, 3-(1-(2-chloro-6-methylbenzyl)-4-(2-hydroxypropan-2-yl)-1H-indol-6-yl)-1-methyl-1,6-dihydro-7H-pyrrolo[2,3-c]pyridin-7-one]
> 6.00 | CCS(=O)(=O)c1cccc2c1nc(-c1cn(C)c3c(O)nccc13)n2[C@H](c1ccccc1)C1CCOCC1 [Compound 115, (S)-3-(4-(ethylsulfonyl)-1-(phenyl(tetrahydro-2H-pyran-4-yl)methyl)-1H-benzo[d]imidazol-2-yl)-1-methyl-1H-pyrrolo[2,3-c]pyridin-7-ol]
> 6.00 | Cn1cc(-c2cc3c(C(C)(C)O)cccc3n2[C@@H](c2ccccc2)C2CCOCC2)c2ccnc(O)c21 [Compound 116, (R)-3-(4-(2-hydroxypropan-2-yl)-1-(phenyl(tetrahydro-2H-pyran-4-yl)methyl)-1H-indol-2-yl)-1-methyl-1H-pyrrolo[2,3-c]pyridin-7-ol]

same assay, conditions: growth inhibition in fulvestrant-resistant MCF-7:CFR cells, 120 hrs

SMILES | pIC50
CCS(=O)(=O)Nc1cc(-c2cn(CCCl)c3c(O)nccc23)cc2c1ccn2Cc1c(C)cccc1C [Compound 84, N-(6-(1-(2-chloroethyl)-7-hydroxy-1H-pyrrolo[2,3-c]pyridin-3-yl)-1-(2,6-dimethylbenzyl)-1H-indol-4-yl)ethanesulfonamide] | > 6.00
CCS(=O)(=O)Nc1cc(-c2cn(CCCl)c3c(O)nccc23)cc2c1ccn2Cc1c(C)cccc1C [Compound 96, N-(6-(1-(2-chloroethyl)-7-hydroxy-1H-pyrrolo[2,3-c]pyridin-3-yl)-1-(2,6-dimethylbenzyl)-1H-indol-4-yl)ethanesulfonamide] | < 7.00

From patent publication US11840533B2, “Pyridinone-based epigenetic modifiers and uses thereof” (THE BOARD OF TRUSTEES OF THE UNIVERSITY OF ILLINOIS, priority 2017, dated 2023)
